Measured values as given in PMC5827430, “Oxidation of the FAD cofactor to the 8-formyl-derivative in human electron-transferring flavoprotein” (The Journal of Biological Chemistry, 2018).
Changes are numbered by the printed parent chain.

Columns and labels:
[1] = biological target: T1, hETF (human electron-transferring flavoprotein) (Homo sapiens, UniProt P13804+P38117, P13804:H286A); assay: HPLC analysis of extracted cofactor; assay type: binding; settings: purified at pH 7.0
T1 construct: gene ETFA; mature heterodimer from E. coli BL21(DE3), pET-28a+ operon; alpha from Gln-20; N-terminal His6 on beta (tag kept)
T1 sequence (P13804 20-333 H286A): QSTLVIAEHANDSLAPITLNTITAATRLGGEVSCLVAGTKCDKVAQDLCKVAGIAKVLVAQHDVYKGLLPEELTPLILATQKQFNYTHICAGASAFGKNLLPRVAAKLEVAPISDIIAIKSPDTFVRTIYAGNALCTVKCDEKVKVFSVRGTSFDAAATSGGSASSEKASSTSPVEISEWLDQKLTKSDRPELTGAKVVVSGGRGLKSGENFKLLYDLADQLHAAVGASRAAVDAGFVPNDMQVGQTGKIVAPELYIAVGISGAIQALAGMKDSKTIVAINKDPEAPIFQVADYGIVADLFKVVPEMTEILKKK
T1 sequence (P38117 1-255): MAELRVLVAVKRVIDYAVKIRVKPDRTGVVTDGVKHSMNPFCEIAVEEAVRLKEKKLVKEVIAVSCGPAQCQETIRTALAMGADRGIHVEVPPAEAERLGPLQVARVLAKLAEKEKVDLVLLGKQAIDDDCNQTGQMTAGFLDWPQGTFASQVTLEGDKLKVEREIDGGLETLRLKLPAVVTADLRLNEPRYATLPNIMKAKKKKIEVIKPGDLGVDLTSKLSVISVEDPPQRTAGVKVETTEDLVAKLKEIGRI

[2] = biological target: T2, hETF (human electron-transferring flavoprotein) (Homo sapiens, UniProt P13804+P38117, P38117:E165A); assay: UV-visible absorption; steady-state kinetics of the FAD form; settings: purified at pH 7.0
T2 construct: gene ETFA; mature heterodimer from E. coli BL21(DE3), pET-28a+ operon; alpha from Gln-20; N-terminal His6 on beta (tag kept)
T2 sequence (P13804 20-333): T1 sequence (P13804 20-333 H286A) with A267H
T2 sequence (P38117 1-255 E165A): T1 sequence (P38117 1-255) with E165A

With `Cc1cc2nc3c(=O)[nH]c(=O)nc-3n(C[C@H](O)[C@H](O)[C@H](O)COP(=O)(O)OP(=O)(O)OC[C@H]3O[C@@H](n4cnc5c(N)ncnc54)[C@H](O)[C@@H]3O)c2cc1C` [FAD] the “HPLC analysis of extracted cofactor” value [1] was “the FAD cofactor was bound weakly to the αH286A variant” and the “UV-visible absorption; steady-state kinetics of the FAD form” value [2] was “FAD formylation was absent in the freshly purified variant βE165A”.
